# ChEMBL document CHEMBL5696439 (Cancer Res, 2010)
# The source made the active and inactive calls. The calls are words filed in the database; no cut-off is given here.
# Legend:
# PI3K p110 beta/p85 alpha = PI3K p110 beta/p85 alpha (Homo sapiens, UniProt P42338); test: Inhibition of p110beta/p85alpha (unknown origin) using PIP2 as substrate measured after 15 to 30 mins by fluorescence polarization assay; assay type: protein-complex assay
# [1] = target: Tyrosine-protein kinase Blk (Homo sapiens) (UniProt P51451); test: Inhibition of recombinant human full-length His-tagged BLK expressed in insect cells at 2 uM using Tyr 01 as substrate measured after 1 hr by Z'-LYTE assay relative to control; settings: Insect cell
# Sequence of Tyrosine-protein kinase Blk (Homo sapiens) (P51451 2-505 limits assumed): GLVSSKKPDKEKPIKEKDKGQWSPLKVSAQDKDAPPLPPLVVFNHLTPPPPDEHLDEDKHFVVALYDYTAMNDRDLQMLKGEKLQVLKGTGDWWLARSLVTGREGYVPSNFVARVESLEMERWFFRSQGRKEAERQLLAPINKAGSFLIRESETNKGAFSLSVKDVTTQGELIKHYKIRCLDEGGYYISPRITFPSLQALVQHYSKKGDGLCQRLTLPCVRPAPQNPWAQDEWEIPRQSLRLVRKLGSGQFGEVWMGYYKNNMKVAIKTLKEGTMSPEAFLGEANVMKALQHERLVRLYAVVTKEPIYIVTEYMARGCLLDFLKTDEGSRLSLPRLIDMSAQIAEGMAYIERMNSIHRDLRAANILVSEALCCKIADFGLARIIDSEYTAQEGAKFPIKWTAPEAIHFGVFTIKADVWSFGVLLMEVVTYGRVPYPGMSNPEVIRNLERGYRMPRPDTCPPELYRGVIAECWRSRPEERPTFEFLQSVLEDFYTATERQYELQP
# [2] = target: Calcium/calmodulin-dependent protein kinase type II subunit delta (Homo sapiens) (UniProt Q13557); test: Inhibition of recombinant human full-length His-tagged CAMK2D expressed in insect cells at 2 uM using Ser/Thr 04 as substrate measured after 1 hr by Z'-LYTE assay relative to control; settings: Insect cell
# Sequence of Calcium/calmodulin-dependent protein kinase type II subunit delta (Homo sapiens) (Q13557 whole entry): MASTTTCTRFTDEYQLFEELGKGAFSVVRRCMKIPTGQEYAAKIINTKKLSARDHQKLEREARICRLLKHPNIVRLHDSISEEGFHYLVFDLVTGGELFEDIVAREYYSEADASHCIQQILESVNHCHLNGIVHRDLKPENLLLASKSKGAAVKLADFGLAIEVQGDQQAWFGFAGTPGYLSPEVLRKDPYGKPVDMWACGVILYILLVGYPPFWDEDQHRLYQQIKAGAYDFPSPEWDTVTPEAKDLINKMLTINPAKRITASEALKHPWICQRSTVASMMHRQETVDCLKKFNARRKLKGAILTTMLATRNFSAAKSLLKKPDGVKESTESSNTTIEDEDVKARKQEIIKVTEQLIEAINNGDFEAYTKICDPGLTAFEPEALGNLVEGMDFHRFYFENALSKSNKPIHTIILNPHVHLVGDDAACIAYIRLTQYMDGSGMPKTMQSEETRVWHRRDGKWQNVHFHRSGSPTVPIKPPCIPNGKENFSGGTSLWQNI
# [3] = target: Cyclin-dependent kinase 5/CDK5 activator 1 (Homo sapiens) (UniProt Q00535+Q15078); test: Inhibition of recombinant human full-length GST/His-tagged CDK5/p35 expressed in insect cells at 2 uM using Ser/Thr 12 as substrate measured after 1 hr by Z'-LYTE assay relative to control; settings: Insect cell
# Sequence of Cyclin-dependent kinase 5/CDK5 activator 1 (Homo sapiens) (Q00535 whole entry): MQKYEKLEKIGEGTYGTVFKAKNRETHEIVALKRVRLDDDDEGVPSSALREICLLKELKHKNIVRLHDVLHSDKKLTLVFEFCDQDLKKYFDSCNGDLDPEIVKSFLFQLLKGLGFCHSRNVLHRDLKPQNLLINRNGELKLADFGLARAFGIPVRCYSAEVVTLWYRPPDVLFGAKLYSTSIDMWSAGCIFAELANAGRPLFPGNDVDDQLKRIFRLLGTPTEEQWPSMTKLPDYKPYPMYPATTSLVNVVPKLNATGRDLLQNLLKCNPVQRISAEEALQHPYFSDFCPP
# Sequence of Cyclin-dependent kinase 5/CDK5 activator 1 (Homo sapiens) (Q15078 99-307 partner limits assumed): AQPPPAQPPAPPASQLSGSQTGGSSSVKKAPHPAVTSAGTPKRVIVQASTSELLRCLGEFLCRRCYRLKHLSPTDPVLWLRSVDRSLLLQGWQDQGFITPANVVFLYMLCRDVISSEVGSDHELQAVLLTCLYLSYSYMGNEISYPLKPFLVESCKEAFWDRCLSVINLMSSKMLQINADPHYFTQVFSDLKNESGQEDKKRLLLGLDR
# [4] = target: Casein kinase II subunit alpha (Homo sapiens) (UniProt P68400); test: Inhibition of recombinant human full-length His-tagged CSNK2A1 expressed in baculovirus expression system at 2 uM using Ser/Thr 11 as substrate measured after 1 hr by Z'-LYTE assay relative to control
# Sequence of Casein kinase II subunit alpha (Homo sapiens) (P68400 whole entry, looked up): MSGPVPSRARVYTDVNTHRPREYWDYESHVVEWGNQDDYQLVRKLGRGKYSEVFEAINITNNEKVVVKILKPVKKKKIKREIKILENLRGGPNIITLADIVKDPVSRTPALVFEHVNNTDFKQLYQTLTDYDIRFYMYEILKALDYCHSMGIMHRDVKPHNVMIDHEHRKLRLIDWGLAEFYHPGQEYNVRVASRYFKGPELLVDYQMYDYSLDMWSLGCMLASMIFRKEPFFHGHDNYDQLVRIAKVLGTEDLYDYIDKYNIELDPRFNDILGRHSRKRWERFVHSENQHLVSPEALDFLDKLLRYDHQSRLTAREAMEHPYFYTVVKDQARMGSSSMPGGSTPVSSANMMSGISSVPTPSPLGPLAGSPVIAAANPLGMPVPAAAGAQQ
# [5] = target: Tyrosine-protein kinase Fgr (Homo sapiens) (UniProt P09769); test: Inhibition of recombinant human full-length His-tagged FGR expressed in insect cells at 2 uM using Tyr 02 as substrate measured after 1 hr by Z'-LYTE assay relative to control; settings: Insect cell
# Sequence of Tyrosine-protein kinase Fgr (Homo sapiens) (P09769 2-529 limits assumed): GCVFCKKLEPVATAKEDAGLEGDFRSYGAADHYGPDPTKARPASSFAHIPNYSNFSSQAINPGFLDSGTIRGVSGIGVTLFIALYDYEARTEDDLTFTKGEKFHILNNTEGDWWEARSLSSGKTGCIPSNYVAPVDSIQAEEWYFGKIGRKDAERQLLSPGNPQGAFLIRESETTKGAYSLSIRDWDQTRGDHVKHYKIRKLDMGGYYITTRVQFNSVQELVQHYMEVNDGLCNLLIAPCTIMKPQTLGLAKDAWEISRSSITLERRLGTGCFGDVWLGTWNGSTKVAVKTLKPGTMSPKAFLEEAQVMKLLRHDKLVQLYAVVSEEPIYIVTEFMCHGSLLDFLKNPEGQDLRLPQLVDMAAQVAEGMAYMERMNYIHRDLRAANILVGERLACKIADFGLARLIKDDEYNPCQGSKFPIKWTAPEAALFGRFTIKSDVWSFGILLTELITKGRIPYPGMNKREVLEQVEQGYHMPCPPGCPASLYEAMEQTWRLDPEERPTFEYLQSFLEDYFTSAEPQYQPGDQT
# [6] = target: Tyrosine-protein kinase HCK (Homo sapiens) (UniProt P08631); test: Inhibition of recombinant human full-length GST-tagged HCK expressed in insect cells at 2 uM using Tyr 02 as substrate measured after 1 hr by Z'-LYTE assay relative to control; settings: Insect cell
# Sequence of Tyrosine-protein kinase HCK (Homo sapiens) (P08631 2-526 limits assumed): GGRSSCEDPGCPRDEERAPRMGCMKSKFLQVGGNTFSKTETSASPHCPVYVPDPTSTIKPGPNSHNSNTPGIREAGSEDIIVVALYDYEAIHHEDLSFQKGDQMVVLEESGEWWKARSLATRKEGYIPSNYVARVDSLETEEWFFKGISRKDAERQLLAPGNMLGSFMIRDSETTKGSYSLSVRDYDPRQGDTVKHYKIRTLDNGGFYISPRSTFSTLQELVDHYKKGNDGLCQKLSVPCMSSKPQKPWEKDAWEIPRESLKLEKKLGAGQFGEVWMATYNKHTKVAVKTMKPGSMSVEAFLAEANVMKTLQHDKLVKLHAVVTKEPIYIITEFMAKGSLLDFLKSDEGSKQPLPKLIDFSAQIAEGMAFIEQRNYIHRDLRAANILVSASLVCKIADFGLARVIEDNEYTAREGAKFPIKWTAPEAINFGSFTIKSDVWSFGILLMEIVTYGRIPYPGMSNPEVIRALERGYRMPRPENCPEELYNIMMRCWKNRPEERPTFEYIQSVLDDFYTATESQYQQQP
# [7] = target: Leukocyte tyrosine kinase receptor (Homo sapiens) (UniProt P29376); test: Inhibition of recombinant human GST-tagged LTK (450-864 residues) expressed in insect cells at 2 uM using Tyr 06 as substrate measured after 1 hr by Z'-LYTE assay relative to control; settings: Insect cell
# [8] = target: Tyrosine-protein kinase Lyn (Homo sapiens) (UniProt P07948); test: Inhibition of recombinant human full length GST-tagged LYN A expressed in baculovirus expression system at 2 uM using Tyr 02 as substrate measured after 1 hr by Z'-LYTE assay relative to control
# Sequence of Tyrosine-protein kinase Lyn (Homo sapiens) (P07948 2-512 limits assumed): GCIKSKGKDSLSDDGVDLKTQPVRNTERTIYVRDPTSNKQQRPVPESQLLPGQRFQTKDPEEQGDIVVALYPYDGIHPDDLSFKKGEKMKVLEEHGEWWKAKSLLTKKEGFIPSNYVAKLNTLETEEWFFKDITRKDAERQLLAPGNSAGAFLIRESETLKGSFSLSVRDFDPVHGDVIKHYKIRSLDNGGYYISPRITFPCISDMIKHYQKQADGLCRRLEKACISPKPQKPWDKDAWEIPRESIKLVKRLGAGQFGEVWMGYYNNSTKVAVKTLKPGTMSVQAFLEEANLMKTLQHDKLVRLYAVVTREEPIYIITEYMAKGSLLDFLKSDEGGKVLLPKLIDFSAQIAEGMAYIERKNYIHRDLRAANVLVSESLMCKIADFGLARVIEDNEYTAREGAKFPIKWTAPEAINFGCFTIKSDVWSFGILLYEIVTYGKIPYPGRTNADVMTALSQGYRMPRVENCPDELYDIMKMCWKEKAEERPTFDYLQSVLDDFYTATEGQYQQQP
# [9] = target: Dual specificity mitogen-activated protein kinase kinase 6 (Homo sapiens) (UniProt P52564); test: Inhibition of recombinant human full length His-tagged MAP2K6 expressed in baculovirus expression system at 2 uM using Ser/Thr 03 as substrate measured after 1 hr by Z'-LYTE assay relative to control
# [10] = target: Mitogen-activated protein kinase 10 (Homo sapiens) (UniProt P53779); test: Inhibition of recombinant human full length GST-tagged MAPK10 expressed in insect cells at 2 uM using Ser/Thr 04 as substrate measured after 1 hr by Z'-LYTE assay relative to control; settings: Insect cell
# Sequence of Mitogen-activated protein kinase 10 (Homo sapiens) (P53779 whole entry): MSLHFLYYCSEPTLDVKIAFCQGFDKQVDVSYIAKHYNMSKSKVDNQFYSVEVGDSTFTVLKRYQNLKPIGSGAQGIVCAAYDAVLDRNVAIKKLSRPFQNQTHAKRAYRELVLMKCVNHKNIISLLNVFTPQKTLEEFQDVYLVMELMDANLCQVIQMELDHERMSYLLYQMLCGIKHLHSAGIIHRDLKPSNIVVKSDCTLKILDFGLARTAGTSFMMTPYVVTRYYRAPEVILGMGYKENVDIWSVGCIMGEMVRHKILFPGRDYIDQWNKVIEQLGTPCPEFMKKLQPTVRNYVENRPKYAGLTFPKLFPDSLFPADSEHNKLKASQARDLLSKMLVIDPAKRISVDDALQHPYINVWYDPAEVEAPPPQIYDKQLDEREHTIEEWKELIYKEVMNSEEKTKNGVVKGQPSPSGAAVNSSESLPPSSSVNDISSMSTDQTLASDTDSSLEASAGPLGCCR
# [11] = target: Myosin light chain kinase 2, skeletal/cardiac muscle (Homo sapiens) (UniProt Q9H1R3); test: Inhibition of recombinant human full length GST-tagged MYLK2 expressed in insect cells at 2 uM using Ser/Thr 13 as substrate measured after 1 hr by Z'-LYTE assay relative to control; settings: Insect cell
# Sequence of Myosin light chain kinase 2, skeletal/cardiac muscle (Homo sapiens) (Q9H1R3 whole entry, the tested form may be a part): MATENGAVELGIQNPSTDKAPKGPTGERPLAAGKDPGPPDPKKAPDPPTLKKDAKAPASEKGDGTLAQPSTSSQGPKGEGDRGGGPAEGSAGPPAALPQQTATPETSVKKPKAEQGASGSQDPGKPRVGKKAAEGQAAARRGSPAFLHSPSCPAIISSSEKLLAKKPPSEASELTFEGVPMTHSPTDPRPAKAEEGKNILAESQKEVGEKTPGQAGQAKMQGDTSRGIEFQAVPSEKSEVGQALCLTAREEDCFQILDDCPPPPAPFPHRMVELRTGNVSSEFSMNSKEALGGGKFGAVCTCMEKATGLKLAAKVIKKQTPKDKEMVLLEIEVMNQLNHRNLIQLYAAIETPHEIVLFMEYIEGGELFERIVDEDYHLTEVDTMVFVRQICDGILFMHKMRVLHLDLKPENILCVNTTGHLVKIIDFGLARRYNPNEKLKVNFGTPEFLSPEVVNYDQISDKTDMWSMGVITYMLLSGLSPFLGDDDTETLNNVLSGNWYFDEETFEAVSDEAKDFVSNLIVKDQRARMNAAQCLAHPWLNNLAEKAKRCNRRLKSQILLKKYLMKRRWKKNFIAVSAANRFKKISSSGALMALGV
# [12] = target: High affinity nerve growth factor receptor (Homo sapiens) (UniProt P04629); test: Inhibition of recombinant human His-tagged NTRK1 (441-796 residues) expressed in insect cells at 2 uM using Tyr 01 as substrate measured after 1 hr by Z'-LYTE assay relative to control; settings: Insect cell
# [13] = target: BDNF/NT-3 growth factors receptor (Homo sapiens) (UniProt Q16620); test: Inhibition of recombinant human His-tagged NTRK2 (526-838 residues) expressed in insect cells at 2 uM using Tyr 01 as substrate measured after 1 hr by Z'-LYTE assay relative to control; settings: Insect cell
# [14] = target: Serine/threonine-protein kinase PLK2 (Homo sapiens) (UniProt Q9NYY3); test: Inhibition of recombinant human full length GST-tagged PLK2 expressed in baculovirus expression system at 2 uM using Ser/Thr 16 as substrate measured after 1 hr by Z'-LYTE assay relative to control
# [15] = target: Protein kinase C eta type (Homo sapiens) (UniProt P24723); test: Inhibition of recombinant human PRKCH at 2 uM using Ser/Thr 07 as substrate measured after 1 hr by Z'-LYTE assay relative to control
# [16] = tested on: RAF proto-oncogene serine/threonine-protein kinase (Homo sapiens), P04049 [Y340D,Y341D]; test: Inhibition of recombinant human GST-tagged RAF1 Y340D/Y341D double mutant (306-648 residues) expressed in insect cells at 2 uM using Ser/Thr 03 as substrate measured after 1 hr by Z'-LYTE assay relative to control; settings: Insect cell
# [17] = Inhibition of recombinant human GST-tagged ROCK1 (1-552 residues) expressed in insect cells at 2 uM using Ser/Thr 13 as substrate measured after 1 hr by Z'-LYTE assay relative to control; settings: Insect cell, condition cancer
# [18] = target: Testis-specific serine/threonine-protein kinase 1 (Homo sapiens) (UniProt Q9BXA7); test: Inhibition of recombinant human full length His-tagged STK22D expressed in insect cells at 2 uM using Ser/Thr 04 as substrate measured after 1 hr by Z'-LYTE assay relative to control; settings: Insect cell
# Sequence of Testis-specific serine/threonine-protein kinase 1 (Homo sapiens) (Q9BXA7 whole entry, the tested form may be a part): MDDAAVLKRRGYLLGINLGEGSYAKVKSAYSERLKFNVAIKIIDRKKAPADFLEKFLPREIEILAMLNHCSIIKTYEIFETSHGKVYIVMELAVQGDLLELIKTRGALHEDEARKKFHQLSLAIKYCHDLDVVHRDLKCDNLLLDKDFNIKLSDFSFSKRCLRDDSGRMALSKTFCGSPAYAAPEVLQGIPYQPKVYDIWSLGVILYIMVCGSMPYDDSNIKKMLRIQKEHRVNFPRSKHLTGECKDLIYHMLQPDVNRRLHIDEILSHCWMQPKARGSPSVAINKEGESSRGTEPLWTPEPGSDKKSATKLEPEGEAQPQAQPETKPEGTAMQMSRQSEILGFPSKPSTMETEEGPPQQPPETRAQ
# [19] = target: Serine/threonine-protein kinase TAO2 (Homo sapiens) (UniProt Q9UL54); test: Inhibition of recombinant human GST-tagged TAOK2 (1-314 residues) expressed in insect cells at 2 uM using Ser/Thr 07 as substrate measured after 1 hr by Z'-LYTE assay relative to control; settings: Insect cell
# Rat1 = test: Inhibition of mTORC2 in rat Rat1 cells assessed as reduction in AKT phosphorylation at T308 level at 0.01 to 2 uM incubated for 1 hrs in the presence of IGF-1 stimulation by immunoblot assay; assay type: cell-based; settings: dose 0.01-2 µM
# A498 [20] = test: Antiproliferative activity against human A498 cells assessed as cell growth inhibition incubated for 24 hrs by MTS assay; assay type: functional, cell-based; settings: A498, 24 h
# PC3MM2 = test: Antitumor activity against human PC3MM2 cells assessed as block the hypoxia-induced VEGF production in low oxygen at 0.3 micromol/L incubated for 24 hrs by ELISA analysis; assay type: functional, cell-based; settings: dose 0.3 µmol/L
# U-87 MG = test: Antitumor activity against PTEN-null human U-87MG cells xenografted in female nude mouse model assessed as tumor growth delay at 25 to 50 mg/kg, po qd administered as 5 days on/2 days off regimen for 4 cycles; assay type: functional, organism-based; settings: U-87MG ATCC, dose 25-50 mg/kg, time 28.0 day
# A498 [21] = test: cells; settings: Homo sapiens, A498, 48 h
# Description: Antiproliferative activity against human A498 cells assessed as cell growth inhibition incubated for 2 days by MTS assay
smiles,measurement,setting,value
CNC(=O)Nc1ccc(-c2nc(N3CC4CCC(C3)O4)c3cnn(C4CCC5(CC4)OCCO5)c3n2)cc1,IC50,PI3K p110 beta/p85 alpha,> 10 µM
same,inhibition,[1],1%
same,inhibition,[2],11%
same,inhibition,[3],-4%
same,inhibition,[4],0%
same,inhibition,[5],1%
same,inhibition,[6],5%
same,inhibition,[7],8%
same,inhibition,[8],7%
same,inhibition,[9],8%
same,inhibition,[10],14%
same,inhibition,[11],8%
same,inhibition,[12],7%
same,inhibition,[13],1%
same,inhibition,[14],1%
same,inhibition,[15],14%
same,inhibition,[16],12%
same,inhibition at 2 µM,[17],5%
same,inhibition,[18],3%
same,inhibition,[19],3%
same,inhibition,Rat1,inactive
same,IC50,A498 [20],0.11 µM
same,Activity,PC3MM2,Active
same,Activity,U-87 MG,Active
same,IC50,A498 [21],2.5 µM
